US8748343B2, “Herbicide/safener combintions” (Bayer Cropscience AG, priority 1998, dated 2014)

Experiments:
maize = experiment: Field trial, phytotoxicity to maize (post-emergence)
Description: (§1) The field experiments were carried out in plots of 8 to 10 m^2, and each experiment was carried out in 2 to 4 replications. After the crop plants had been sown, the test preparations were applied pre-emergence, or in the 2-6-leaf stage, using plot sprayers. The spray volume was 100-300 l water/ha; it was applied by means of flat-jet nozzles at a pressure of 2-3 bar. Evaluation was done by visual scoring. The effects on the crop plants or on the broad-leaved weeds/grass weeds were estimated in comparison with untreated control plots using a percentage scale (0-100%). After application, the plants were scored 3-4 times at intervals of approx. 14, 28, 42 days after application. The results represent averages over 2-4 replications. […] Anti-weed action should show efficacies of ≧60%. From sowing until the experiments were concluded, they were exposed to the natural weather conditions (precipitation, temperature, atmospheric humidity, insolation), as they are characteristic for the experimental sites.

Abutilon theophrastis = experiment: Field trial, action on grass weeds/broad-leaved weeds (post-emergence); format: in vivo; details: 100 g a.i./ha
Description: as §1

Panicum minor = experiment: as above; format: in vivo; details: 100 g a.i./ha
Description: as §1

Setaria faberi = experiment: as above; format: in vivo; details: 100 g a.i./ha
Description: as §1

SMILES | Phytotoxicity to maize [%] 14 dat (maize; maize, in vivo, 14 days) [%] | Phytotoxicity to maize [%] 42 dat (maize; maize, in vivo, 42 days) [%] | Phytotoxicity to maize [%] 14 dat (maize; field trial, 4-leaf stage (Table 11), 120 g a.i./ha, 14 days after treatment) [%] | Phytotoxicity to maize [%] 42 dat (maize; field trial, 4-leaf stage (Table 11), 120 g a.i./ha, 42 days after treatment) [%] | Phytotoxicity to maize [%] 14 dat (maize; field trial, 4-leaf stage, post-emergence, 100 g a.i./ha, 14 days after treatment) [%] | Phytotoxicity to maize [%] 31 dat (maize; field trial, 4-leaf stage, post-emergence, 100 g a.i./ha, 31 days after treatment) [%] | Phytotoxicity to maize [%] 14 dat (maize; field trial, mixture with sulfonylureas, post-emergence (Table 13), 120 g a.i./ha, 14 days after treatment) [%] | Phytotoxicity to maize [%] 42 dat (maize; field trial, mixture with sulfonylureas, post-emergence (Table 13), 120 g a.i./ha, 42 days after treatment) [%] | Phytotoxicity [%] Maize (maize; field trial, post-emergence (Table 12), 100 g a.i./ha) [%] | Phytotoxicity [%] Abutilon theophrastis (Abutilon theophrastis) [%] | Phytotoxicity [%] Panicum minor (Panicum minor) [%] | Phytotoxicity [%] Setaria faberi (Setaria faberi) [%]
COc1cc(OC)nc(NC(=O)NS(=O)(=O)c2cc(NC=O)ccc2C(=O)N(C)C)n1 [Herbicide 2, N,N-Dimethyl-2-[3-(4,6-dimethoxypyrimidin-2-yl)ureido-sulfonyl]-4-formylaminobenzamide] | 13 | 7 | – | – | – | – | – | – | – | – | – | –
CCOC(=O)C1=NOC(c2ccccc2)(c2ccccc2)C1 [Safener II-9, Ethyl 5,5-diphenyl-2-isoxazoline-3-carboxylate] | – | – | 0 | 0 | 0 | 0 | 0 | 0 | 0 | 0 | 0 | 0
